# Values quoted from earlier work, collected in patent US11497806B2, “Immunization agents and methods of use” (priority 2014, dated 2022).
# Like-named read-outs stand apart in the source and are kept apart here.
# What was measured:
# transactivator = target: T1, transactivator (Homo sapiens, UniProt P06401); settings: rats
# T1 construct: host or cells: rat (in vivo)
# luciferase target gene = settings: heat treatment in the presence but not in the absence of mifepristone; FIG. 2
# T1 sequence (P06401 640-891, added parts left off): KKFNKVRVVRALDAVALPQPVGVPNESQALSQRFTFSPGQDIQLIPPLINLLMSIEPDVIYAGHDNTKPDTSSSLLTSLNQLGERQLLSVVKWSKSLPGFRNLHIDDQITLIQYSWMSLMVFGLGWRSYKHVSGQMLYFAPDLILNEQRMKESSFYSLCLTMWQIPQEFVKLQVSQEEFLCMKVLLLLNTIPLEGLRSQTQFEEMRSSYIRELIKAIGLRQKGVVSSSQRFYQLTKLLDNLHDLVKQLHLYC
smiles,measurement,setting,value
CC#C[C@]1(O)CC[C@H]2[C@@H]3CCC4=CC(=O)CCC4=C3[C@@H](c3ccc(N(C)C)cc3)C[C@@]21C [mifepristone],Amount reaching an effective concentration,transactivator; i.p.,5 µg/kg
same,Amount reaching an effective concentration,transactivator; orally,about 10 μg/kg
same,Target gene expression after heat treatment,luciferase target gene,resulted in activation of target gene expression
